The compounds below were run against T1, human ERβ (Homo sapiens, UniProt Q92731) (assay: PolarScreen ERβ competitive binding assay (fluorescence polarization)). Details: recombinant human ERβ 23 nM, 4.5 nM Fluormone ES2 Green, 2 h; approximate IC50; read-out: IC50 (displacement of Fluormone ES2 Green from ERβ).
T1 construct: purchased Life Technologies
T1 sequence (Q92731 whole entry): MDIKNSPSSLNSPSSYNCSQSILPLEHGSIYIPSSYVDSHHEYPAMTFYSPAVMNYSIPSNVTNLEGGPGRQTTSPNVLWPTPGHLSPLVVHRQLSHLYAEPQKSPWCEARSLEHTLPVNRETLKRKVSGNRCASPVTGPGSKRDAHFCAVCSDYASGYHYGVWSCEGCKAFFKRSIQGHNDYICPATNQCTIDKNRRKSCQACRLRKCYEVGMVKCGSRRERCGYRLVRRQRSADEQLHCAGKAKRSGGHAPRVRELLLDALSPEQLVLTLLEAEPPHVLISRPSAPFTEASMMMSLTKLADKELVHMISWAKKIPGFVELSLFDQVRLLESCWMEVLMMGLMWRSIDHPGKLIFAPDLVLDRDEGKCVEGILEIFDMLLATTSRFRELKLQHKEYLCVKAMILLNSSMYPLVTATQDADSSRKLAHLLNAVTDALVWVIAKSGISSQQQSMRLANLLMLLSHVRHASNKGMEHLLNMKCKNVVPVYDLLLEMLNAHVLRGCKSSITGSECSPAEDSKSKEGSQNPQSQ
`OC[C@H]1O[C@@H](Oc2cc3c(O)cc(O)cc3[o+]c2-c2cc(O)c(O)c(O)c2)[C@H](O)[C@@H](O)[C@@H]1O` [D3G, delphinidin-3-glucoside] showed an IC50 of 9.7 µM.
`C[C@@H]1O[C@@H](OC[C@H]2O[C@@H](Oc3cc4c(O)cc(O)cc4[o+]c3-c3cc(O)c(O)c(O)c3)[C@H](O)[C@@H](O)[C@@H]2O)[C@H](O)[C@H](O)[C@H]1O` [D3R, delphinidin-3-rutinoside] was tested, and the IC50 was 2.3 µM.
`OC[C@H]1O[C@@H](Oc2cc3c(O)cc(O)cc3[o+]c2-c2ccc(O)c(O)c2)[C@H](O)[C@@H](O)[C@@H]1O` [C3G, cyanidin-3-glucoside] showed an IC50 of 2.8 µM.

— paper PMC6017224, “Phytoestrogenic Activity of Blackcurrant Anthocyanins Is Partially Mediated through Estrogen Receptor Beta” (Molecules : A Journal of Synthetic Chemistry and Natural …, 2017)
